Results on one molecule are retold here after patent US11412735B2, “Pre-emergent herbicide” (W. Neudorff GMBH KG, priority 2016, dated 2022).

What all share (assay type): in vivo
The test system of data set [1] is dandelion seeds. The experiment in a line: Greenhouse dandelion seed germination (in grass) test (Example 4). The settings on record: dandelion seeded in grass pots. The source says: (§1) The “weed emergence suppression assay” comprises:
(§2) applying an amount of a composition or the components thereof to a target area comprising pre-emergent undesired vegetation; and following application (e.g. after at least 7, 14 or 21 days from application) assessing emergence visually using a percentage rating scale from 100% (no undesired vegetation emergence) to 0% (complete undesired vegetation emergence=untreated control).
Dry FeHEDTA (micro-granular; Dissolvine H—Fe-13) was purchased from the company AkzoNobel. Corn gluten meal (Amaizeingly Green; N—P—K 10-0-0) and the mustard seed meal (Pescadero Gold; N—P—K 4.5-1.5-1.15) were purchased from AgGlobal (155, Gordon Baker Road, Suite 402,Toronto, ON M2H 3N7, Canada. www.buyagglobal.com) and Farm Fuel Inc (275 Coward Rd, Watsonville, Calif. 95076, USA. www.farmfuelinc.com), respectively. The corn gluten meal and mustard seed meal arrived in pellet form, but were ground and sieved through a mesh (sieve opening size 850 μm) before use to obtain a particle size of ≤850 μm. […]
(§3) Pots 4″ in size were filled with wetted potting media, grass (lawn) seeds (perennial rye grass) were spread until soil was completely covered with grass seeds (5 g/pot) and kept for 1 month until grass was grown. […] Number of emerged seedlings in each pot was recorded 14 days after application.

For data set [2], the system named is dandelion seeds. As to the kind of experiment: Greenhouse dandelion seed germination test, application on soil (Examples 1-3). Conditions: soil pots; for Weed emergence suppression assay score: untreated = 0%.
Text: as §1, §2
(§4) Dry FeHEDTA (micro-granular; Dissolvine H—Fe-13) was purchased from the company AkzoNobel. Corn gluten meal (Amaizeingly Green; N—P—K 10-0-0) and the mustard seed meal (Pescadero Gold; N—P—K 4.5-1.5-1.15) were purchased from AgGlobal (155, Gordon Baker Road, Suite 402,Toronto, ON M2H 3N7, Canada. www.buyagglobal.com) and Farm Fuel Inc (275 Coward Rd, Watsonville, Calif. 95076, USA. www.farmfuelinc.com), respectively. The corn gluten meal and mustard seed meal arrived in pellet form, but were ground and sieved through a mesh (sieve opening size 850 μm) before use to obtain a particle size of ≤850 μm. FeHEDTA (4.8%) was mixed with 1% of drying agent (MICRO-CEL® E) and then mixed with fertilizer seed meal (corn gluten meal or mustard seed meal) (94.2%) and blended thoroughly until the formulation became homogeneous. The application rate was 100 g/m^2 for the combined treatment (94.2 g/m^2 for FSM and 4.8 g/m^2 for FeHEDTA), 4.8 g/m^2 for FeHEDTA treatment and 100 g/m^2 for FSM treatment. In the formulation, the respective FSM was simply blended with transition metal chelate and with other ingredients if applicable. Samples were usually prepared within 48 hours of treatment. All tests were done in the greenhouse.
Pots 4″ in size were filled with wetted potting media and dandelion seeds were spread (0.2 g of seeds/four pots in examples 1 and 2 and 0.25 g/4 pots in example 3) evenly over each pot and lightly watered 3 hrs before treating. Seeded pots were covered with a thin layer of potting soil and treatments were applied after seeding (e.g. just after seeding). Each treatment consisted with 4 replicates. All treatments were lightly watered as needed until the seedlings emerged. Number of emerged seedlings in each pot was recorded 7 or 21 days after treatment application.

Data set [3] deals with grass (lawn), perennial rye grass. As to the kind of experiment: Grass phytotoxicity / selective herbicide assay (Example 4).
Text: The “selective herbicide assay” comprises:
applying an amount of a composition (or the components thereof) to a target area comprising pre-emergent undesired vegetation and desired vegetation; and
following application (e.g. after at least 7, 14 or 21 days from application) assessing separately undesired vegetation emergence and desired vegetation survival visually using a percentage rating scale from 0% (no undesired vegetation emergence/no desired vegetation survival) to 100% (complete undesired vegetation emergence/complete desired vegetation survival).
as §4, §3

On to `O=C([O-])CN(CCO)CCN(CC(=O)[O-])CC(=O)[O-].[Fe+3]` [Dry FeHEDTA (B), FeHEDTA], for which the “Weed emergence suppression assay score” value in the data set on dandelion seeds [1] (14 days after application, untreated = 0%) was 2.63%; with dandelion seeds [2] (Example 1, 21 days after application), −4.76%; in the data set on dandelion seeds [2] (Example 2, 21 days after application), −26.66%; with dandelion seeds [2] (Example 3, 7 days after application), 55.07%. In addition, the “Weed (dandelion) Seedling emergence: No of dandelion seedlings (14 days after application)” value with dandelion seeds [1] (untreated 76) is reported as 74. The “Seedling emergence: No of seedlings (21 days after application)” value is 44 in the data set on dandelion seeds [2] (Example 1, 21 days after application, 100 g/m^2 combined or FSM, 4.8 g/m^2 FeHEDTA, untreated 42) and 76 in the data set with dandelion seeds [2] (Example 2, 21 days after application, 100 g/m^2 combined or FSM, 4.8 g/m^2 FeHEDTA, untreated 60). For the same molecule, in the data set with dandelion seeds [2] (Example 3, 7 days after application, 100 g/m^2 combined or FSM, 4.8 g/m^2 FeHEDTA, untreated 134), the “Seedling emergence: No of seedlings 7 days after application” value is given as 59. Moreover, the “Selective herbicide assay score” value in data set [3] (score on desired vegetation (grass)) is reported as 0%. Also, the “Grass phytotoxicty, 7 days after treatment” value in data set [3] (visual rating of grass damage, 7 days after treatment) worked out at 0. The “Grass phytotoxicty, 14 days after treatment” value in data set [3] (visual rating of grass damage, 14 days after treatment) came out at 0.
